Laboratory results reported in patent US10080747B2, “Nicotinic attenuation of CNS inflammation and autoimmunity” (priority 2008, dated 2018).
Where two headings read alike, the source gives them in different places.

What was measured:
MOG-specific antibodies = test system: MOG-specific antibodies
Protocol: MOG-reactive antibodies were quantified by enzyme-linked immunoabsorbent assay (ELISA). Briefly, microtiter plates (Corning Glass Works, Corning, N.Y., USA) were coated with 100 μl/well of murine MOG35-55 (10 μg/ml) at 4° C. overnight. After blocking with 10% fetal bovine serum, serum samples (day 11, peak stage after immunization) were added and incubated at 4° C. overnight. Plates were then incubated for 2 h with biotinylated rabbit anti-mouse IgG, IgG1, IgG2a, IgA, IgG3 and IgG2b (Invitrogen, Carlsbad, Calif., USA), followed by alkaline phosphatase-conjugated ABC reagent (Dakopatts; R&D systems, Minneapolis, Minn., USA). The color was developed with p-nitrophenyl-phosphate. Results were expressed as optical density (OD) at […].

acute EAE in B6 mice = details: for mean clinical score, remaining mild motor deficit after recovery: PBS 2.75±0.25; for mean maximal clinical score: scale 0 to 5, PBS 4.25±0.80
[1] = test system: MOG35-55-specific T cells; details: splenocytes day 11 p.i.
Description: Isotype-matched negative monoclonal antibodies were used as controls.

spleen mononuclear cells [2] = details: annexin V and PI double staining, at the current dose (13 mg/kg/d)
Protocol: Cell viability was assessed by trypan blue dye exclusion. […] Single cell suspensions were washed in PBS and resuspended in binding buffer containing annexin V-FITC and propidium iodide (PI) (both from BD Biosciences) for 20 min at room temperature. The samples were analyzed on a FACSAria using Diva.

spinal cord of EAE mice = details: day 25 p.i., vs PBS
Protocol: Mice were anesthetized with pentobarbital and perfused by intracardiac puncture with 50 ml of cold PBS. Spinal cords were removed and fixed in 10% formalin/PBS. Paraffin-embedded longitudinal sections were prepared and stained for hematoxylin and eosin (H&E), luxol fast blue (LFB, myelin staining) and Biechowsky silver (axon staining). The percentages of spinal cord inflammation, demyelination and axonal damage per mouse were calculated by first determining the total white matter area for all spinal cord sections by manually tracing the regions. Next, the areas of spinal cord inflammation, demyelination and axonal damage were determined by manually tracing each section. Pathological changes in each spinal cord were scored as follows: 0 no changes; 1 focal area involvement; 2 <5% of total myelin area involved; 3 5-10% of total myelin area involved; 4 10-20% involved area; 5 >20% of total myelin area involved (Bai, X. F., et al., J Exp Med 200:447-458).

Th cells = test system: Th cells
Protocol: Single cell suspensions (4×10^7 cells) were prepared and incubated at 37° C. for 3 days in round-bottom plates (2×10^6 cells/well) with or without antigens (MOG 10 μg/ml, PLP 10 µg/ml or Con A 2.5 μg/ml), and stimulated with PMA (20 ng/ml)/ionomycin (1 μg/ml)/brefeldin A (5 μg/ml) for another 5 h at 37° C. After harvesting, cells were stained for surface markers with fluorochrome-conjugated monoclonal antibodies including anti-CD3-PE/Cy5 (17A2), anti-CD4-APC/Cy7 (GK1.5), and anti-CD8α-PE/Cy7 (53-6.7) (BD Bioscience). Isotype-matched negative monoclonal antibodies were used as controls. For intracellular cytokine staining, after fixation and permeabilization with Cytofix/Cytoperm kit (BD Bioscience), anti-IFN-γ, anti-IL-4, anti-IL-10 and anti-IL-17 monoclonal antibody conjugated with Alexa 647 were used. All samples were analyzed on a FACSAria using Diva. To determine the percentage of cells producing cytokine, the value obtained with the isotype control was subtracted from that with specific antibody. For cytokine induction, supernatants were collected 3 days after in vitro boosting. IFN-γ, IL-10, IL-2 and TGF-β were measured by optEIA kits (PharMingen and eBioscience).

spleen mononuclear cells [3] = details: day 11 p.i.
CNS mononuclear cells = details: day 11 p.i.
Protocol: For CNS cell isolates, at day 11 after EAE induction (peak stage), mice were sacrificed and perfused with PBS through the left heart ventricle to eliminate contaminating blood cells in the CNS. The CNS mononuclear cells were then isolated from five to six mice using Percoll gradients and stained for cell surface markers. Antibodies were directly labeled and analyzed as done for splenocytes. The absolute number of a particular cell subset was calculated by counting the total number of mononuclear cells isolated from the CNS of individual mice and multiplying by the percentage of those cells acquired by FACSAria flow cytometry (Bai, X. F., et al., J Exp Med 200:447-458).

[4] = test system: adoptively transferred EAE in B6 mice; details: recipients of T cells from nicotine-treated donors
[5] = serum day 11 after immunization, vs control mice
[6] = nicotine pre-treated group (day −7)
[7] = supernatants of splenocytes cultured with MOG35-55, vs controls

## CN1CCCC1c1cccnc1 (centres unmarked) [nicotine]
MOG-specific antibodies; mouse, in vivo
  MOG-specific IgG2b production: profoundly impaired
MOG-specific antibodies; [5]
  MOG-specific IgA synthesis: markedly increased
  MOG-specific IgG1 synthesis: markedly increased
Acute EAE in B6 mice; nicotine 13 mg/kg/d for 7 days by minipump, prior to or on the day of disease induction, PBS controls 7.6±0.53 days
  onset of EAE: ≥ 10 day p.i.
Acute EAE in B6 mice; [6]
  day by which the majority of animals recovered: ≤ 21 days
  mean clinical score, remaining mild motor deficit after recovery: 0.83±0.26
Acute EAE in B6 mice; nicotine-treated group (day 0)
  day by which the majority of animals recovered: ≤ 24 days
  mean clinical score, remaining mild motor deficit after recovery: 0.85±0.25
Acute EAE in B6 mice; pre-treatment starting day −7, 13 mg/kg/d x 7
  mean maximal clinical score: 3.17±0.78
Acute EAE in B6 mice; treatment starting day 0 after immunization, 13 mg/kg/d x 7
  mean maximal clinical score: 3.13±0.25
Acute EAE in B6 mice; treatment starting day 7 p.i. when EAE signs began, 13 mg/kg/d x 7
  severity of EAE compared with PBS: significantly milder EAE
Acute EAE in B6 mice; treatment starting day 7 p.i., 13 mg/kg/d x 7
  mean clinical score at the termination of experiments: 0.69±0.43
[1]; p<0.05 vs PBS
  T cell proliferation in response to MOG, 3H incorporation: far fewer T cells
[1]; vs PBS
  proliferation of CD3+, CD4+ and CD8+ T cells in response to MOG, CFSE assay: reduced proliferation
Spleen mononuclear cells [2]
  T cell apoptosis and death: did not induce T cell apoptosis
Spinal cord of EAE mice
  axonal damage, Biechowsky silver: scarcely affected
  demyelination, LFB staining: myelin sheets were largely preserved
  spinal cord inflammation (cellular infiltration), H&E: few infiltrating cells
Th cells; supernatants of splenocytes cultured with MOG35-55, p<0.01
  production of TGF-β1: significantly augmented
Th cells; supernatants of splenocytes cultured with MOG35-55, p<0.05
  production of IL-10: significantly augmented
Th cells; [7]
  IFN-γ production: significant decrease
  production of IL-2: decreased
Spleen mononuclear cells [3]; nicotine from day 0, vs control EAE mice, p<0.05
  percentages and numbers of CD3+, CD4+ and CD8+ T cells and CD19+CD3− B cells among splenocytes: various degrees of reductions
Spleen mononuclear cells [3]; spleen, vs PBS
  expression of Foxp3: clearly augmented
Spleen mononuclear cells [3]; vs PBS
  NK cells, NKT cells and CD4+CD25+ regulatory T cells in spleen: did not differ significantly
  expression of MHC class II, CD80 and CD86 on peripheral CD11c+ and CD11b+ cells: reductions in the expression of MHC class II, CD80 and CD86 were notable
  numbers and percentages of CD11c+ and CD11b+ cells in spleen: not dramatically altered
CNS mononuclear cells; vs PBS
  CD11b+ (macrophage/microglia) and CD11c+ (dendritic) cells in the CNS: lower percentages and absolute numbers
  expression of MHC class II, CD80 and CD86 on CNS CD11c and CD11b cells: reduced
CNS mononuclear cells; vs PBS-treated EAE mice
  numbers of T cells (CD3+, CD4+, CD8+) and B cells (CD3−CD19+) in the CNS: drastically reduced
[4]
  mean clinical score: 1.0±0.15
[4]; control 5.0±0.25
  maximal clinical score: 2.5±0.82
